US8709764B2, “Enzymatic demethylation of flavonoids” (Universiteit Gent, priority 2005, dated 2014)

Experiments:
human fecal cultures [1] = assay: Incubation of X or IX with human fecal cultures A-D for 8 days, conversion products detected by HPLC; assay type: in vitro ADME; settings: fecal cultures A, B and D, 25 mg/l, 8 days
Description: (§1) Fecal slurries of 20% (w/v) fresh fecal samples were prepared by homogenizing the feces with phosphate buffered saline (0.1 M, pH 7) containing 1 g/l sodiumthioglycolate as reducing agent. The particulate material was removed by centrifugation (1 min, 500×g). The supernatant is hereafter called “the culture”.
(§2) The capacity of the cultures obtained from fecal samples A, B, C and D (further referred as cultures A-D) to degrade or transform the hop prenylflavonoid IX was tested by incubating the fecal cultures (10% (v/v)) in Brain Heart Infusion broth (with 0.5 g/l cystein-HCl) with 25 mg/l of isoxanthohumol for a period of 8 days under anaerobic conditions. Extracts of the incubations at days 0 and 8 were assayed for bioactive transformation products of IX using a Yeast Estrogenic Screen, according to De Boever et al. (2001) Env. Health Perspectives 109, 691-697, based on Routledge & Sumpter (1996) Environ. Toxicol. Chem. 15, 241-248. In brief, Saccharomyces cerevisiae, was transformed with the human estrogen receptor (ERα) gene, together with expression plasmids containing responsive elements and the lacZ reporter gene (encoding the enzyme β-galactosidase). β-galactosidase activity is quantified at 540 nm by the conversion of the chromogenic substance chlorophenol red-β-D-galactopyranoside into chlorophenol red. The bioassay response is expressed as the absorbance at 540 nm divided by the optical density at 630 nm [(A540/A630)net]. The estrogenic activity of the samples was expressed as percentage equivalence to 10 nM estradiol (E2) which elicited a 100% response in the estrogen receptor bioassay. The bioassays were performed in 96-well plates in which 10 μL of the test compounds were tested and incubated with 240 μL of the genetically modified yeast (optical density of 0.25 at 610 nm). Serial dilutions of the test compounds were made in dimethylsulfoxide, which allowed generating dose-response curves for doses (ordinate) versus activity (abscissa). The data were fitted by a 4 parametric logistic model using the Marquardt-Levenberg algorithm (Sigmaplot 4.0, SPSS Inc., Chicago, Ill., USA) (De Boever et al. (2001) Env. Health Perspectives 109, 691-697).
To further test this transformation, cultures A-D (10% (v/v)) were incubated for 8 days in Brain Heart Infusion broth (with 0.5 g/l cystein-HCl) with either X or IX at a concentration of 25 mg/l under anaerobic conditions and conversion products were detected by HPLC (Table 1). […] However, in culture C almost 40% of 8-PN was recovered, which explains the increase in estrogenic properties of culture C.

[2] = biological target: T1, human estrogen receptor (ERα) (Homo sapiens, UniProt P03372); assay: Yeast Estrogenic Screen of extracts of fecal culture incubations with IX; assay type: cell-based
T1 construct: expressed in transfected cells; host or cells: Saccharomyces cerevisiae
T1 sequence (P03372 1-595): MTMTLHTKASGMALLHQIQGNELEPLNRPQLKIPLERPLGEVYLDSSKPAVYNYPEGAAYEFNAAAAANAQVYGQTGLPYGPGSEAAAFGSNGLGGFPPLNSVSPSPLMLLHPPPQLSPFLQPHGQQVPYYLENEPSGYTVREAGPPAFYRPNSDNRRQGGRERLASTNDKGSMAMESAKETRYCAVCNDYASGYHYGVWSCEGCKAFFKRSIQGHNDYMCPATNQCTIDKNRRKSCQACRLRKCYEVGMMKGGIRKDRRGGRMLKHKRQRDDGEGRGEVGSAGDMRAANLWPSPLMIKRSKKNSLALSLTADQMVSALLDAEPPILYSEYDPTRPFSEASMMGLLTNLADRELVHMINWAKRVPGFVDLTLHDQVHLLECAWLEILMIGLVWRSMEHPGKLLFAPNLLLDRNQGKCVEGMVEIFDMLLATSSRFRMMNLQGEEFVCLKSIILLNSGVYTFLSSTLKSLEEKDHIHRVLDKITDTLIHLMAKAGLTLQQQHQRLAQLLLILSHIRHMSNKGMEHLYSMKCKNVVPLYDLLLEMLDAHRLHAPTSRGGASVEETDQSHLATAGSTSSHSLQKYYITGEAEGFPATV
Description: as §2, with “The bioassays were performed in 96-well plates in which 10 μL of the test compounds were tested and incubated with 240 μL of the genetically modified yeast (optical density of 0.25 at 610 nm). Serial dilutions of the test compounds were made in dimethylsulfoxide, which allowed generating dose-response curves for doses (ordinate) versus activity (abscissa). The data were fitted by a 4 parametric logistic model using the Marquardt-Levenberg algorithm (Sigmaplot 4.0, SPSS Inc., Chicago, Ill., USA) (De Boever et al. (2001) Env. Health Perspectives 109, 691-697).” left out

human fecal cultures [3] = assay: Incubation of IX with human fecal cultures (E-L; 51 fecal samples) for 3 days; assay type: in vitro ADME
Description: as §1
But not all cultures were able to perform this reaction. Therefore, the remaining cultures E-L (10% (v/v)) were incubated for 3 days in Brain Heart Infusion broth (with 0.5 g/l cystein-HCl) under anaerobic conditions with 25 mg/l IX (FIG. 4).
To further investigate these inter-individual differences, a total of 51 fecal samples were incubated for 3 days in Brain Heart Infusion broth (with 0.5 g/l cystein-HCl) under anaerobic conditions, containing 25 mg/l IX (FIG. 5). The results are presented as % 8-PN production relative to the incubated IX concentration and samples were ordered by increasing 8-PN production capacity.

[4] = Incubation of IX and 8-PN with Eubacterium limosum for 13 days; assay type: in vitro ADME; settings: Eubacterium limosum, Eubacterium limosum ATCC 8486 culture; E. limosum, 25 mg/l substrate, 13 days anaerobic; average (stdev) molar percentage
Description: Eubacterium limosum ATCC 8486 and Peptostreptococcus productus ATCC 27340 were obtained from the German Collection of Microorganisms and Cell Cultures (DSMZ, Braunschweig, Germany). E. limosum was incubated for 13 days in Brain Heart Infusion broth (with 0.5 g/l cystein-HCl) with 25 mg/l of IX and 8-PN under anaerobic conditions (Table 2). This strain was able to convert IX into 8-PN. […] This feature is clearly different from the metabolic pathway as observed in liver microsomes wherein 8-PN is extensively further metabolised [Nikolic et al. (2005) J. of Mass Spectrom. 40, 289-299; Nikolic et al. (2004) Drug Metabolism and Disposition 32, 272-279].

COc1cc(O)c(CC=C(C)C)c2c1C(=O)C[C@@H](c1ccc(O)cc1)O2 [IX, 5-O-methyl-8-prenylnaringenin]
Transformation of IX (human fecal cultures [1]): recalcitrant to transformation
Estrogenic response of incubation extracts ([2]; fecal culture C incubated with 25 mg/l IX, after 8 days): strong increase in the estrogenic properties
Estrogenic response of incubation extracts ([2]; fecal cultures A-D incubated with 25 mg/l IX, day 0): None of the incubations showed an estrogenic response
Microbial O-demethylation of IX (human fecal cultures [3]; fecal cultures E-L, 25 mg/l IX, 3 days anaerobic): only detected in samples E, J and K
Share of tested fecal samples in which activation of IX occurred (human fecal cultures [3]; fecal samples A-L): only a third of the tested samples
recovery at 13 days, 25 mg/l [4]: 51.4%
